Laboratory results: US8648201B2, “Aminopyridine derivatives for treating tumors and inflammatory diseases” (MERCK PATENT GmbH, priority 2009, dated 2014)

Tests used:
Assay type in all cases: biochemical
Conditions in all cases: enzyme
[1] = biological target: T1, IRAK-4 (Homo sapiens, UniProt Q9NWZ3); test: Test for the inhibition of IRAK4 (flashplate, 33P-ATP)
T1 construct: His6 (N); Dr.Jaekel
T1 sequence (Q9NWZ3 1-460): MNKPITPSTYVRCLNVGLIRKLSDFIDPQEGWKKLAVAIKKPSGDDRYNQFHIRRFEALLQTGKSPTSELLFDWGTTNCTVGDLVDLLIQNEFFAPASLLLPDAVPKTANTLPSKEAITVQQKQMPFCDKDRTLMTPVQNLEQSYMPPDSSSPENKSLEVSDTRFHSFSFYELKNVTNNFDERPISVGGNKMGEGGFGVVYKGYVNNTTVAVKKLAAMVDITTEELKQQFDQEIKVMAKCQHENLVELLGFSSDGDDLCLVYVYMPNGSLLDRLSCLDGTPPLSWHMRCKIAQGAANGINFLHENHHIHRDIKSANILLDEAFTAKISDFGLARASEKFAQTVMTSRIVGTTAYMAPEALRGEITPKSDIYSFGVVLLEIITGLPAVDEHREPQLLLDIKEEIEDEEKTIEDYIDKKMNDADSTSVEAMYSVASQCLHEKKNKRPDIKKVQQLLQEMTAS
Experimental: (§1) The experimental batches are carried out in a flashplate system with 384 wells/microtitre plate. In each case, the IRAK4 sample His6-IRAK4 (7.3 nM), the biotinylated substrate peptide STK substrate 1-biotin (Cisbio Bioassays, France) (300 nM), 10 μM ATP (with 0.25 μCi of ^33P-ATP/well) and the test substance in 50 μl of conventional experimental solution per well are incubated at 22° C. for 180 min. The test substances are employed in corresponding concentrations (if desired in a dilution series). The control is carried out without test substance. The reaction is stopped using standard methods and washed. The activity of the kinase is measured via the incorporated radioactivity in top count. In order to determine the non-specific kinase reaction (blank value), the experimental batches are carried out in the presence of 1 μM staurosporin. The radioactivity (decompositions per minute) of the blank value (no use of test substance in the presence of 1 μM staurosporin) is subtracted from all other radioactivity values. The controls (kinase activity without test substance) are set equal to 100 percent and all other radioactivity values (after subtracting the blank value) are expressed set in relation thereto (for example in % of the control). IC50 values (50% inhibition) are determined with the aid of statistics programs, such as, for example, RS1.

[2] = biological target: T2, IRAK-1 (Homo sapiens, UniProt P51617); test: Test for the inhibition of IRAK1 (autophosphorylation, flashplate)
T2 construct: His6 (N); Dr.Jaekel Pool B, 232Y08C1.IRK
Experimental: as §1, with “case, in order to investigate” for “case,”, “inhibition of the autophosphorylation activity of IRAK1, the IRAK1” for “IRAK4”, “His6-IRAK1 (5.1” for “His6-IRAK4 (7.3”, “1” for “the biotinylated substrate peptide STK substrate 1-biotin (Cisbio Bioassays, France) (300 nM), 10”

[3] = biological target: T3, PDK1 (Homo sapiens, UniProt O15530); test: Test for the inhibition of PDK1 (flashplate, 33P-ATP)
T3 construct: His6 (N)
T3 sequence (O15530 51-556 limits assumed): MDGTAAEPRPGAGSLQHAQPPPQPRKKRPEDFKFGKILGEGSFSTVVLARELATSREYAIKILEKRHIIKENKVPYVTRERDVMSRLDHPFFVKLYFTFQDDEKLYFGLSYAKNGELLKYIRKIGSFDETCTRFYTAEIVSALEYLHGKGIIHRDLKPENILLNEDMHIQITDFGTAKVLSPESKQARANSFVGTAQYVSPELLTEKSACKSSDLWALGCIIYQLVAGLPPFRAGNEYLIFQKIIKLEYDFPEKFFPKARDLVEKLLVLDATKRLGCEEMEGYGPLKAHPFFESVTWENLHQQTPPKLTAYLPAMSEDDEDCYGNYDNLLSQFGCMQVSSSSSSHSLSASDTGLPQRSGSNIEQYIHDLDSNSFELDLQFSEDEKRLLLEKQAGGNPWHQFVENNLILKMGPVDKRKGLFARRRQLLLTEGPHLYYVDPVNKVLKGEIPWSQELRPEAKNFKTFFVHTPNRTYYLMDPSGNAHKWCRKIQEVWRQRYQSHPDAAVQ
Experimental: The experimental batches are carried out in a flashplate system with 384 wells/microtitration plate.
In each case, the PDK1 sample His6-PDK1(1-50)(3.4 nM), the PDK1 substrate biotin-bA-bA-[…] (400 nM), 4 μM ATP (with 0.2 μCi of ^33P-ATP/well) and the test substance in 50 μl of conventional experimental solution per well are incubated at 30° C. for 60 min. The test substances are employed in corresponding concentrations (if desired in a dilution series). The control is carried out without test substance. The reaction is stopped using standard methods and washed. The activity of the kinase is measured via the incorporated radioactivity in top count. In order to determine the non-specific kinase reaction (blank value), the experimental batches are carried out in the presence of 100 nM staurosporin.
The radioactivity (decompositions per minute) of the blank value (no use of test substance in the presence of staurosporin) is subtracted from all other radioactivity values. The controls (kinase activity without test substance) are set equal to 100 percent and all other radioactivity values (after subtracting the blank value) are expressed set in relation thereto (for example in % of the control).
IC50 values (50% inhibition) are determined with the aid of statistics programmes, such as, for example, RS1.

T2 sequence (P51617 whole entry, species assumed): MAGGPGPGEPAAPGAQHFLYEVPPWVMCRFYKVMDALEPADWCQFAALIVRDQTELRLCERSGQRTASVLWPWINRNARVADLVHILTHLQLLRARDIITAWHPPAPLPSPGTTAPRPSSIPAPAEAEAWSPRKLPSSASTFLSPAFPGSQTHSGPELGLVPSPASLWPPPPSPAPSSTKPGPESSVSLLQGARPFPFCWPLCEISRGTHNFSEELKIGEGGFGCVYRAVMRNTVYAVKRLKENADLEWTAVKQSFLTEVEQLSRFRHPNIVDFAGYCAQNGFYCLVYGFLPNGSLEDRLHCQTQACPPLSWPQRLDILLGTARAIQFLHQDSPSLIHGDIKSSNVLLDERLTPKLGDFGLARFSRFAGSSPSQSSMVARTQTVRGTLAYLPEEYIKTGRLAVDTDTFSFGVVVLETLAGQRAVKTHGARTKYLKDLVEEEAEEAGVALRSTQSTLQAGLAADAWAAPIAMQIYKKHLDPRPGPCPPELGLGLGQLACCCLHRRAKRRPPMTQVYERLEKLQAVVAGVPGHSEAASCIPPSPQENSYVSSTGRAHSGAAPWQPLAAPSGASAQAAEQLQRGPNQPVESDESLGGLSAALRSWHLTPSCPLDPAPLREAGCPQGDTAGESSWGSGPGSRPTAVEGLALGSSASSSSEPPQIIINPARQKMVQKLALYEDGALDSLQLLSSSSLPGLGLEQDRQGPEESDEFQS

| Compound | IC50 [1] [nM] | IC50 [2] [nM] | IC50 [3] [nM] |
| --- | --- | --- | --- |
| Nc1ncc(-c2cnn(C3CCNCC3)c2)cc1-c1nc2ccc(Cl)cc2[nH]1 [Compound A70] | 1 to 100 | 100 to 10000 | – |
| Nc1ccc(-c2cnc(N)c(-c3nc4ccccc4[nH]3)c2)cn1 [Compound A35] | 100 to 10000 | 100 to 10000 | – |
| CC(O)(c1ccccc1)c1ccc2[nH]c(-c3cc(-c4cnn(CCN5CCOCC5)c4)cnc3N)nc2c1 (centres unmarked) [Compound A150, 1-(2-{2-Amino-5-[1-(2-morpholin-4-ylethyl)-1H-pyrazol-4-yl]pyridin-3-yl}-1H-benzimidazol-5-yl)-1-phenylethanol] | – | – | 100 to 10000 |
| CCn1cc(-c2cnc(N)c(-c3nc4ccc(OC)cc4[nH]3)c2)cn1 [Compound A105, 5-(1-Ethyl-1H-pyrazol-4-yl)-3-(6-methoxy-1H-benzimidazol-2-yl)pyridin-2-ylamine] | 100 to 10000 | 100 to 10000 | – |
| COc1cc2nc(-c3cc(-c4cnn(C5CCNCC5)c4)cnc3N)[nH]c2cc1OC [Compound A66] | 100 to 10000 | 100 to 10000 | – |
| Cc1cc(Cl)cc2nc(-c3cc(-c4cnn(C5CCNCC5)c4)cnc3N)[nH]c12 [Compound A72] | 100 to 10000 | 100 to 10000 | – |
| Nc1ncc(-c2cnn(C3CCNCC3)c2)cc1-c1nc2ccccc2[nH]1 [Compound A114, 3-(1H-Benzimidazol-2-yl)-5-(1-piperidin-4-yl-1H-pyrazol-4-yl)pyridin-2-ylamine] | 1 to 100 | 100 to 10000 | – |
| Cn1cc(-c2cnc(N)c(-c3nc4cc5cn[nH]c5cc4[nH]3)c2)cn1 [Compound A115, 3-(1,7-Dihydroimidazo[4,5-f]indazol-6-yl)-5-(1-methyl-1H-pyrazol-4-yl)pyridin-2-ylamine] | 100 to 10000 | 100 to 10000 | – |
| Nc1ncc(-c2cnn(C3CCNCC3)c2)cc1-c1nc2cc3[nH]c(=O)[nH]c3cc2[nH]1 [Compound A55] | – | – | 1 to 100 |
| COc1ccc2nc(-c3cc(-c4cnn(CCN(C)C)c4)cnc3N)[nH]c2c1 [Compound A94, 5-[1-(2-Dimethylaminoethyl)-1H-pyrazol-4-yl]-3-(6-methoxy-1H-benzimidazol-2-yl)pyridin-2-ylamine] | 100 to 10000 | 100 to 10000 | – |
| Cn1cc(-c2cnc(N)c(-c3nc4ccc(-c5ccc(=O)[nH]n5)cc4[nH]3)c2)cn1 [Compound A8, 6-{2-[2-Amino-5-(1-methyl-1H-pyrazol-4-yl)-pyridin-3-yl]-3H-benzimidazol-5-yl}-2H-pyridazin-3-one] | 100 to 10000 | 100 to 10000 | – |
| CC1CC(=O)NN=C1c1ccc2[nH]c(-c3cc(-c4cnn(CC(=O)O)c4)cnc3N)nc2c1 (centres unmarked) [Compound A24, (4-{6-amino-5-[5-(4-methyl-6-oxo-1,4,5,6-tetrahydropyridazin-3-yl)-1H-benzimidazol-2-yl]pyridin-3-yl}pyrazol-1-yl)acetic acid] | – | – | 1 to 100 |
| COCCNC(=O)c1ccc(-c2cnc(N)c(-c3nc4ccc(OC)cc4[nH]3)c2)s1 [Compound A130, N-(2-methoxyethyl)-5-[6-amino-5-(6-methoxy-1H-benzimidazol-2-yl)pyridin-3-yl]thiophene-2-carboxamide] | 1 to 100 | 1 to 100 | – |
| Cn1cc(-c2cnc(N)c(-c3nc4ccccc4[nH]3)c2)cn1 [Compound A34] | 100 to 10000 | 100 to 10000 | – |
| COc1cc2[nH]c(-c3cc(-c4cnn(CC(=O)N5CCCCC5)c4)cnc3N)nc2cc1F [Compound A30, 2-{4-[6-amino-5-(5-fluoro-6-methoxy-1H-benzimidazol-2-yl)pyridin-3-yl]pyrazol-1-yl}-1-piperidin-1-ylethanone] | 100 to 10000 | 1 to 100 | – |
| CC1CC(=O)NN=C1c1ccc2[nH]c(-c3cc(-c4cnn(C5CCNCC5)c4)cnc3N)nc2c1 (centres unmarked) [Compound A17, 6-{2-[2-amino-5-(1-piperidin-4-yl-1H-pyrazol-4-yl)-pyridin-3-yl]-1H-benzimidazol-5-yl}-5-methyl-4,5-dihydro-2H-pyridazin-3-one] | – | – | 1 to 100 |
| Cn1cc(-c2cnc(N)c(-c3nc4cc(CC(N)=O)ccc4[nH]3)c2)cn1 [Compound A120, 2-{2-[2-amino-5-(1-methyl-1H-pyrazol-4-yl)pyridin-3-yl]-1H-benzimidazol-5-yl}acetamide] | – | – | 1 to 100 |
| Cc1cccc2nc(-c3cc(-c4cnn(C)c4)cnc3N)[nH]c12 [Compound A42] | 100 to 10000 | 100 to 10000 | – |
| CC1CC(=O)NN=C1c1ccc2[nH]c(-c3cc(-c4cnn(CC(=O)N5CCN(C)CC5)c4)cnc3N)nc2c1 (centres unmarked) [Compound A26, 6-[2-(2-Amino-5-{1-[2-(4-methylpiperazin-1-yl)-2-oxoethyl]-1H-pyrazol-4-yl}-pyridin-3-yl)-1H-benzimidazol-5-yl]-5-methyl-4,5-dihydro-2H-pyridazin-3-one] | – | – | 1 to 100 |
| Cn1cc(-c2cnc(N)c(-c3nc4ccc(CCN)cc4[nH]3)c2)cn1 [Compound A64] | – | – | 1 to 100 |
| Nc1ncc(-c2cnn(C3CCNCC3)c2)cc1-c1nc2ccc(F)cc2[nH]1 [Compound A50] | 1 to 100 | 100 to 10000 | – |
| COc1ccc2nc(-c3cc(-c4cnn(CCCN(C)C)c4)cnc3N)[nH]c2c1 [Compound A96, 5-[1-(3-Dimethylaminopropyl)-1H-pyrazol-4-yl]-3-(6-methoxy-1H-benzimidazol-2-yl)pyridin-2-ylamine] | 100 to 10000 | 100 to 10000 | – |
| Nc1ncc(-c2ccncc2)cc1-c1nc2ccccc2[nH]1 [Compound A32] | 100 to 10000 | 100 to 10000 | – |
| Cn1cc(-c2cnc(N)c(-c3nc4c(F)cc(F)cc4[nH]3)c2)cn1 [Compound A76] | > 10000 | 100 to 10000 | – |
| Nc1ncc(-c2cnn(C3CCNCC3)c2)cc1-c1nc2cc(S(N)(=O)=O)ccc2[nH]1 [Compound A62] | 100 to 10000 | 100 to 10000 | – |
| CC1CC(=O)NN=C1c1ccc2[nH]c(-c3cc(-c4cnn(CC(=O)N(C)C)c4)cnc3N)nc2c1 (centres unmarked) [Compound A25, 2-(4-{6-amino-5-[5-(4-methyl-6-oxo-1,4,5,6-tetrahydropyridazin-3-yl)-1H-benzimidazol-2-yl]pyridin-3-yl}pyrazol-1-yl)-N,N-dimethylacetamide] | – | – | 1 to 100 |
